{"source": "patent US6872745B2", "about": "“Antipicornaviral compounds and compositions, their pharmaceutical uses, and materials for their synthesis” (Agouron Pharmaceuticals, Inc., priority 2000, dated 2005)", "key": {"[1]": {"biological_target": "T1, rhinovirus 3C protease, serotype 14 (Human rhinovirus 14, UniProt P03303)", "T1 construct": "Recombinant rhinovirus 3C proteases; made in house", "T1 sequence (P03303 1538-1719)": "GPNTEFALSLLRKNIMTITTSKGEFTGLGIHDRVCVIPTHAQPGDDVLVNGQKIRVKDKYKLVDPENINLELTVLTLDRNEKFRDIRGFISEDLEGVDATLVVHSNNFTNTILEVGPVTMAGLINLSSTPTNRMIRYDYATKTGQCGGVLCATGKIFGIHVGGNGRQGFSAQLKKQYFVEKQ", "assay": "Inhibition of rhinovirus 3C protease (FRET assay, enzyme start)", "format": "biochemical", "conditions": "HRV-14 3C protease, progress curves, read-out: Kobs/I", "in_short": "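Recombinant serotype 14 3C protease (50-100 nM) with ~1 μM DABCYL-GRAVFQGPVG-EDANS FRET substrate in 50 mM tris pH 7.6, 1 mM EDTA, 2% DMSO. Reactions started by enzyme addition; kobs/[I] taken from fluorescence-increase progress curves.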"}, "[2]": {"tested_on": "HRV-14", "assay": "Antirhinoviral H1-HeLa cell culture assay (XTT cell protection)", "format": "cell-based, human rhinovirus", "conditions": "Rhinovirus B, HRV14, H1-HeLa, HRV-14, H1-HeLa cells", "in_short": "(§1)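 H1-HeLa cells infected with HRV (HRV-14 at m.o.i. 0.13) or mock-infected, incubated with compound for two days; protection read by XTT/PMS formazan at 450/650 nm. EC50 is the concentration restoring formazan to 50% of mock-infected controls. CC50 is from mock-infected cells, and TI = CC50/EC50.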"}, "[3]": {"tested_on": "HRV-1A", "assay": "Antirhinoviral H1-HeLa cell culture assay (XTT cell protection)", "format": "cell-based, human rhinovirus", "conditions": "Rhinovirus A, HRV1A, H1-HeLa cells"}, "[4]": {"tested_on": "HRV-10", "assay": "Antirhinoviral H1-HeLa cell culture assay (XTT cell protection)", "format": "cell-based", "conditions": "Human rhinovirus sp., HRV10; HRV-10, H1-HeLa cells", "protocol": "In this cell protection assay, the ability of compounds to protect cells against HRV infection was measured by the XTT dye reduction method, which is described in Weislow et al., J. Natl. Cancer Inst. (1989), vol. 81, 577-586. H1-HeLa cells were infected with HRV-14 at a multiplicity of infection (m.o.i.) of 0.13 (virus particles/cell) or mock-infected with medium only. Infected or mock-infected cells were resuspended at 8×10^5 cells per ml, and incubated with appropriate concentrations of the compounds to be tested. Two days later, XTT/PMS was added to test plates and the amount of formazan produced was quantified spectrophotometrically at 450/650 nm. The EC50 value was calculated as the concentration of compound that increased the percentage of formazan production in compound-treated, virus-infected cells to 50% of that produced by compound-free, mock-infected cells. The 50% cytotoxic dose (CC50) was calculated as the concentration of compound that decreased the percentage of formazan produced in compound-treated, mock-infected cells to 50% of that produced by compound-free, mock-infected cells. The therapeutic index (TI) was calculated by dividing the CC50 value by the EC50 value.\nAll strains of human rhinovirus (HRV) for use in this assay were purchased from American Type Culture Collection (ATCC), except for HRV serotype-14 (produced from the infectious cDNA clone constructed by Dr. Robert Rueckert, Institute for Molecular Virology, University of Wisconsin, Madison, Wis.). HRV stocks were propagated and viral assays were performed in H1-HeLa cells (ATCC). Cells were grown in minimal essential medium with 10% fetal bovine serum, available from Life Technologies (Gaithersburg, Md.)."}, "[5]": {"tested_on": "CAV-21", "assay": "Anticoxsackieviral cell culture assay (H1-HeLa, XTT)", "format": "cell-based, Coxsackievirus type A-21", "conditions": "Coxsackievirus; CAV-21, H1-HeLa cells", "protocol": "(§2) Coxsackievirus types A-21 (CAV-21) and B3 (CVB3) were purchased from American Type Culture Collection (ATCC, Rockville, Md.). Virus stocks were propagated and antiviral assays were performed in H1-HeLa cells (ATCC). Cells were grown in minimal essential medium with 10% fetal bovine serum (Life Technologies, Gaithersburg, Md.). The ability of the compounds of this invention to protect cells against either CAV-21 or CVB3 infection was measured by the XTT dye reduction method. This method is described in Weislow et al., J. Natl. Cancer Inst. (1989), vol. 81, 577-586. H1-HeLa cells were infected with CAV-21 or CVB3 at a multiplicity of infection (m.o.i.) of 0.025 or 0.075, respectively, or mock-infected with medium only. H1-HeLa cells were plated at 4×10^4 cells per well in a 96-well plate and incubated with appropriate concentrations of the test compound. One day (CVB3) or two days (CAV-21) later, XTT/PMS was added to test plates and the amount of formazan produced was quantified spectrophotometrically at 450/650 nm. The EC50 was calculated as the concentration of compound that increased the formazan production in compound-treated, virus-infected cells to 50% of that produced by compound-free, uninfected cells. […] The therapeutic index (TI) was calculated by dividing the CC50 by the EC50."}, "[6]": {"tested_on": "ECHO 11", "assay": "Anti-echoviral cell culture assay (MRC-5, XTT)", "format": "cell-based, Echovirus type 11", "conditions": "Enterovirus B, MRC5; ECHO-11, MRC-5 cells", "protocol": "(§3) Echovirus type 11 (ECHO 11) was purchased from ATCC (Rockville, Md.). Virus stocks were propagated and antiviral assays were performed in MRC-5 cells (ATCC). Cells were grown in minimal essential medium with 10% fetal bovine serum (Life Technologies, Gaithersburg, Md.). The ability of the compounds of this invention to protect cells against ECHO 11 infection was measured by the XTT dye reduction method (Weislow et al., J. Natl. Cancer Inst. (1989), vol. 81, 577-586). MRC-5 cells were infected with ECHO 11 at an m.o.i. of 0.003 or 0.004, respectively, or mock-infected with medium only. Infected or uninfected cells were added at 1×10^4 cells per well and incubated with appropriate concentrations of compound. Four days later, XTT/PMS was added to test plates, and the amount of formazan produced was quantified spectrophotometrically at 450/650 nm. The EC50 was calculated as the concentration of compound that increased the formazan production in compound-treated, virus-infected cells to 50% of that produced by compound-free, uninfected cells. […] The therapeutic index (TI) was calculated by dividing the CC50 by the EC50. Activity of the compounds against enterovirus type 70 (EV 70) may be measured by the same assay as described above in this section. […]"}, "[7]": {"tested_on": "EV 70", "assay": "Anti-enteroviral cell culture assay (MRC-5, XTT)", "format": "cell-based, enterovirus type 70", "conditions": "Enterovirus D, MRC5; ENT-70, MRC-5 cells", "protocol": "as §3"}, "[8]": {"assay": "Cytotoxicity in mock-infected cells of the antirhinoviral assay (XTT)", "format": "cell-based", "conditions": "human, H1-HeLa cells, table line HRV-14", "in_short": "as §1"}, "[9]": {"tested_on": "H1-HeLa cells", "assay": "Cytotoxicity in mock-infected cells of the antirhinoviral assay (XTT)", "format": "cell-based", "in_short": "as §1"}, "[10]": {"assay": "Cytotoxicity in uninfected cells of the anticoxsackieviral assay (XTT)", "format": "cell-based", "conditions": "human, H1-HeLa cells, table line CAV-21", "protocol": "as §2"}, "[11]": {"assay": "Cytotoxicity in uninfected cells of the anti-echoviral/anti-enteroviral assay (XTT)", "format": "cell-based", "conditions": "human, MRC-5 cells, table line ECHO-11", "protocol": "as §3"}, "[12]": {"tested_on": "MRC-5 cells", "assay": "Cytotoxicity in uninfected cells of the anti-echoviral/anti-enteroviral assay (XTT)", "format": "cell-based", "conditions": "table line ENT-70", "protocol": "as §3"}}}
{"smiles": "CCOC(=O)/C=C/[C@H](C[C@@H]1CCNC1=O)NC(=O)[C@H](Cc1ccccc1)NC(=O)c1ccc(-c2cccc3ccccc23)[nH]1", "note": "[Compound 25, 4S-{2S-[(5-Naphthalen-1-yl-1H-pyrrole-2-carbonyl)-amino]-3-phenyl-propionylamino}-5-(2-oxo-pyrrolidin-3S-yl)-pent-2-enoic acid ethyl ester]", "values": [{"measurement": "kinact/KI", "setting": "[1]", "result": 690000, "unit": "M⁻¹ s⁻¹"}, {"measurement": "EC50", "setting": "[2]", "result": 34, "unit": "nM"}, {"measurement": "EC50", "setting": "[3]", "result": 89, "unit": "nM"}, {"measurement": "EC50", "setting": "[4]", "result": 148, "unit": "nM"}, {"measurement": "EC50", "setting": "[5]", "result": 200, "unit": "nM"}, {"measurement": "EC50", "setting": "[6]", "result": 44, "unit": "nM"}, {"measurement": "EC50", "setting": "[7]", "result": 3, "unit": "nM"}, {"measurement": "CC50 at 2 days", "setting": "[8]", "result": "> 10000", "unit": "nM"}, {"measurement": "CC50", "setting": "[9]; table line HRV-1A", "result": "> 10000", "unit": "nM"}, {"measurement": "CC50", "setting": "[9]; table line HRV-10", "result": "> 10000", "unit": "nM"}, {"measurement": "CC50 at 2 days", "setting": "[10]", "result": "> 10000", "unit": "nM"}, {"measurement": "CC50 at 4 days", "setting": "[11]", "result": "> 10000", "unit": "nM"}, {"measurement": "CC50", "setting": "[12]", "result": "> 10000", "unit": "nM"}]}
